This is an account of results in PMC10427391, “Identification of Cytochrome P450 2E1 as a Novel Target in Glioma and Development of Its Inhibitor as an Anti‐Tumor Agent” (Advanced Science, 2023).

SMILES strings stand for the structures. pIC50: −log10 of the molar value.

Data set [1] concerns glioma induced by U251‐LUC cells. The data set can be described thus: Intracranial orthotopic glioma model induced by U251-LUC cells.
The test system of the next data set is primary microglia. Description: Primary microglia induced by IL-4 and IL-13: polarization markers and signaling (western blot, immunofluorescence).
Data set [2] is described as follows: Central inhibitory effect. The following applies: clomethiazole: at a dose that inhibited CYP2E1.
The next data set has as its target CYP2E1 (Homo sapiens, UniProt P05181). Description: In vitro inhibition of CYP2E1 (chlorzoxazone as substrate). In kind it is biochemical. On the set-up: A 100 µL microsomal incubation system; from tissue. The note with it: chlorzoxazone 62.5 µM; read-out: IC50 of inhibition on CYP2E1. Here is the method: Chlorzoxazone with a concentration of 62.5 µM and inhibitors with different gradient concentrations were selected to plot the inhibition of chlorzoxazone and to calculate the IC50 of the inhibitor. A Lineweaver–Burk curve was used to determine the mechanism and calculate the K i of inhibitors of CYP2E1.
A 100 µL microsomal incubation system^[ [44] ^] contained probe drugs for each CYP with different series of concentrations, Q11, phosphate buffer, EDTA, magnesium chloride, and substrates (phenacetin for CYP1A2, coumarin for CYP2A6, bupropion for CYP2B6, paclitaxel for CYP2C8, tolbutamide for CYP2C9, omeprazole for CYP2C19, dextromethorphan for CYP2D6, chlorzoxazone for CYP2E1, midazolam for CYP3A4/5). HPLC‐UV and HPLC‐FLD were used to measure the number of metabolites.

The mark [3] stands for this setting: endpoint day 36 after transplantation.

CYP2E1, sequence (P05181 whole entry): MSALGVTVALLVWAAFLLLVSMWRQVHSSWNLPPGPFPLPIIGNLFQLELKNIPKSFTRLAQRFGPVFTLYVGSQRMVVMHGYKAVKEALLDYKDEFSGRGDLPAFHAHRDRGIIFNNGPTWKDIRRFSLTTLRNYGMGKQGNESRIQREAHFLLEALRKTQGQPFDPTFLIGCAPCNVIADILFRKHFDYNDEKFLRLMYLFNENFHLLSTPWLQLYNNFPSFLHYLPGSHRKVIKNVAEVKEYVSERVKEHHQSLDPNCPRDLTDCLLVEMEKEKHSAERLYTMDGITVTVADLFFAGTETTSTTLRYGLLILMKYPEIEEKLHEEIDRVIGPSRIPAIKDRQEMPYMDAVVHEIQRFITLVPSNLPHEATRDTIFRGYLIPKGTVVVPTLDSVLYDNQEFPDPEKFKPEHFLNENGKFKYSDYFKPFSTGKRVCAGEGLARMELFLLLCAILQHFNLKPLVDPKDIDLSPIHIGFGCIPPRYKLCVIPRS
Method for primary microglia: Tissues and cells were harvested and lysed with RIPA buffer. The protein concentration was determined using a BCA kit. Samples were separated on 10% SDS‐PAGE gels and blotted onto nitrocellulose membranes (Millipore).The membranes were incubated with primary antibodies at 4 °C overnight, washed three times with TBST, and then incubated with HRP‐conjugated anti‐mouse IgG or anti‐rabbit IgG diluted in TBST containing 1% non‐fat milk at room temperature for 1 h. After final washing with TBST, the membranes were developed by using ECL.

Consider `Cn1nnc2c(C(N)=O)ncn2c1=O` [TMZ, temozolomide, reference compound], for which, in data set [1] (day 14 after transplantation, Q11 at 10 and 30 mg kg^−1), the “bioluminescence in tumor sites” value is on record as “lesser bioluminescence”. In data set [1] (setting [3]), the brain weight entry is listed as “markedly suppressed”, the tumor diameter entry was “markedly suppressed” and the tumor volume entry is “markedly suppressed”.

`CN(CCOc1ccc(CC2SC(=O)NC2=O)cc1)c1ccccn1` (centres unmarked) [Rosiglitazone, reference compound]: in the data set on primary microglia (agonist of PPAR-γ added to Q11), the “effect on the action of Q11 (PPAR-γ dependence)” value was “completely blocked the effect of Q11”.

For the molecule `O=C(Nc1ccccc1)c1cc([N+](=O)[O-])ccc1Cl` [GW9662, reference compound], in the data set with primary microglia (antagonist of PPARγ, blocked the ability of rosiglitazone), the “PPAR-γ expression in presence of rosiglitazone” value is given as “downregulated”.

Take `Cc1ncsc1CCCl` [clomethiazole, reference compound]: in data set [2], the central inhibitory effect entry was “significant central inhibitory effect”. Also, the pIC50 at CYP2E1 is 4.41.
